How the values were obtained:
Format in all cases: cell-based
cancer cells of breast = assay: Growth inhibition of cancer cells of breast; details: Homo sapiens; concentration of about 100 μg/ml; MCF-7 and ZR-75-1; read-out: inhibits the growth of cancer cells of breast
Description: (§1) The human cancer cell lines were obtained either from National center for cell science, Pune, India or National Cancer Institute, Frederick, Md., U.S.A. Cells were grown in tissue culture flasks in complete growth medium (RPMI-1640 medium with 2 mM glutamine, 100 μg/ml streptomycin, pH 7.4, sterilized by filtration and supplemented with 10% sterilized fetal calf serum and 100 units/ml penicillin before use) at 37° C. in an atmosphere of 5% CO2 and 90% relative humidity in a carbon dioxide incubator (WTB binder, Germany). The cells at subconfluent stage were harvested from the flask by treatment with trypsin (0.05% trypsin in PBS containing 0.02% EDTA) and suspended in complete growth medium. […]
(§2) Cell growth was measured by staining with sulforhodamine B dye (SRB). […] The optical density was recorded on ELISA reader at 540 run.
(§3) The cell growth in presence of test material was determined by subtracting mean OD value of respective blank from the mean OD value of experimental set. Like wise, cell growth in absence of test material (control set) and in presence of positive control was also determined. The percent cell growth in presence of test material was determined considering the cell growth in absence of test material as 100% and in turn percent inhibition was calculated.

HT-29 = assay: In vitro cytotoxicity (SRB), HT-29; details: Homo sapiens, HT-29 (colon), 48-hours, read-out: Percent growth inhibition; for inhibition at 30 µg/mL: 30 μg/ml; for inhibition at 100 µg/mL: 100 μg/ml
Description: (§4) The human cancer cell lines were obtained either from National center for cell science, Pune, India or National Cancer Institute, Frederick, Md., U.S.A. Cells were grown in tissue culture flasks in complete growth medium (RPMI-1640 medium with 2 mM glutamine, 100 μg/ml streptomycin, pH 7.4, sterilized by filtration and supplemented with 10% sterilized fetal calf serum and 100 units/ml penicillin before use) at 37° C. in an atmosphere of 5% CO2 and 90% relative humidity in a carbon dioxide incubator (WTB binder, Germany). The cells at subconfluent stage were harvested from the flask by treatment with trypsin (0.05% trypsin in PBS containing 0.02% EDTA) and suspended in complete growth medium. Cells with cell viability of more than 97% by trypan blue exclusion technique were used for determination of cytotoxicity.
(§5) (−)-Matairesinol was dissolved in DMSO (dimethyl sulphoxide) to obtain a stock solution of 20 mg/ml. The stock solution was serially diluted with complete growth medium containing 50 μg/ml of gentamycin to obtain three working test solutions of 200, 60 and 20 μg/ml
(§6) The suspension of human cancer cell lines of required cell density in complete growth medium was prepared and cell suspension ([…] per wall) of each cell line) of 96-well tissue culture plate. Three additional wells of each cell line were also prepared for control. Two blank wells for control and each experimental and each experimental set for every cell line were also included that contained equivalent amount of complete growth medium only. The plates were incubated at 37° C. in an atmosphere of 5% CO2 and 90% relative humidity in a carbon dioxide incubator.
(§7) The working test solutions of (−)-Matairesinol of different concentrations (100 μl) were added after 24-hours incubation in all the wells including blanks of the experimental set. The equivalent amount of complete growth medium was added to control set.
The plates were further incubated for 48-hours (at 37° C. in an atmosphere of 5% CO2 and 90% relative humidity in a carbon dioxide incubator) after addition of test material etc. and then the cell growth was stopped by gently layering of 50 μl of TCA (50% trichloroacetic acid) on top of the medium in all the wells. […]
as §2, §3

Hep-2 = assay: In vitro cytotoxicity (SRB), Hep-2; details: Homo sapiens; Hep-2 (liver), 100 μg/ml, 48-hours; read-out: Percent growth inhibition
Description: as §1, §2, §3

[1] = test system: cancer cells of neuroblastoma; assay: Growth inhibition of cancer cells of neuroblastoma; details: Homo sapiens; concentration of about 100 μg/ml; SKNMC and IMR-32; read-out: inhibits the growth of cancer cells of neuroblastoma
Description: as §1, §2, §3

Colo-205 = assay: In vitro cytotoxicity (SRB), Colo-205; details: Homo sapiens, Colo-205 (colon), 48-hours, read-out: Percent growth inhibition; for inhibition at 10 µg/mL: 10 μg/ml; for inhibition at 30 µg/mL: 30 μg/ml; for inhibition at 100 µg/mL: 100 μg/ml
Description: as §4, §5, §6, §7
(§8) The plates were further incubated for 48-hours (at 37° C. in an atmosphere of 5% CO2 and 90% relative humidity in a carbon dioxide incubator) after addition of test material etc. and then the cell growth was stopped by gently layering of 50 μl of TCA (50% trichloroacetic acid) on top of the medium in all the wells. The plates were incubated at 4° C. for one hour to fix the cells attached to the bottom of the wells. Liquids of all the wells were gently pipetted out and discarded. The plates were washed five times with distilled water to remove TCA, growth medium, low molecular weight metabolites, serum proteins etc. Plates were air-dried.
(§9) Cell growth was measured by staining with sulforhodamine B dye (SRB). The SRB solution (100 μl of 0.4% in 1% acetic acid) was added to each well and the plates were incubated at room temperature for 30 minutes. The unbound SRB was quickly removed by washing the wells five times with 1-% acetic acid and plates were air-dried. Tris-buffer (100 μl of 0.01 M, pH 10.4) was added to all the wells and plates were gently stirred for 5 minutes on a mechanical stirrer. The optical density was recorded on ELISA reader at 540 run.
as §3

cancer cells of colon = assay: Growth inhibition of cancer cells of colon; details: Homo sapiens; concentration of about 100 μg/ml; Colo-205, HT-29 and SW-620; read-out: inhibits the growth of cancer cells of colon
Description: as §1, §2, §3

SKNMC = assay: In vitro cytotoxicity (SRB), SKNMC; details: Homo sapiens, SK-N-MC; SKNMC (neuroblastoma), 100 μg/ml, 48-hours; read-out: Percent growth inhibition
Description: as §1, §2, §3

human cancer cell lines = assay: In vitro cytotoxicity against the human cancer cell lines studied (panel); details: for inhibition of cell growth of the human cancer cell lines studied (in words): 10, 30 and 100 μg/ml; for inhibition at 100 µg/mL: Homo sapiens, at 100 μg/ml, read-out: inhibition of cell growth, range over the human cancer cell lines studied
Description: as §4, §5, §6
The working test solutions of (−)-Matairesinol of different concentrations (100 μl) were added after 24-hours incubation in all the wells including blanks of the experimental set. The equivalent amount of complete growth medium was added to control set. […]
as §2, §3
In vitro cytotoxicity of (−)-matairesinol was determined against human breast (MCF-7 & ZR-75-1), neuroblastoma (SK-N-MC & IMR-32), cervix (SiHa), colon (Colo-205, HT-29 & SW-620), liver (HEP-2) and lung (A-549) cancer cell lines. […]

cancer cells of liver = assay: Growth inhibition of cancer cells of liver; details: Homo sapiens; concentration of about 100 μg/ml; Hep-2; read-out: inhibits the growth of cancer cells of liver
Description: as §1, §2, §3

A-549 = assay: In vitro cytotoxicity (SRB), A-549; details: Homo sapiens, A549, A-549 (lung), 48-hours, read-out: Percent growth inhibition; for inhibition at 10 µg/mL: 10 μg/ml; for inhibition at 30 µg/mL: 30 μg/ml; for inhibition at 100 µg/mL: 100 μg/ml
Description: as §4, §5, §6, §7, §8, §9, §3

ZR-75-1 = assay: In vitro cytotoxicity (SRB), ZR-75-1; details: Homo sapiens; ZR-75-1 (breast), 100 μg/ml, 48-hours; read-out: Percent growth inhibition
Description: as §1, §2, §3

cancer cells of cervix = assay: Growth inhibition of cancer cells of cervix; details: Homo sapiens; concentration of about 100 μg/ml; SiHa; read-out: inhibits the growth of cancer cells of cervix
Description: as §1, §2, §3

IMR-32 = assay: In vitro cytotoxicity (SRB), IMR-32; details: Homo sapiens; IMR-32 (neuroblastoma), 100 μg/ml, 48-hours; read-out: Percent growth inhibition
Description: as §1, §2, §3

SW-620 = assay: In vitro cytotoxicity (SRB), SW-620; details: Homo sapiens, SW-620 (colon), 48-hours, read-out: Percent growth inhibition; for inhibition at 30 µg/mL: 30 μg/ml; for inhibition at 100 µg/mL: 100 μg/ml
Description: as §4, §5, §6, §7, §8
Cell growth was measured by staining with sulforhodamine B dye (SRB). The SRB solution (100 μl of 0.4% in 1% acetic acid) was added to each well and the plates were incubated at room temperature for 30 minutes. The unbound SRB was quickly removed by washing the wells five times with 1-% acetic acid and plates were air-dried. […] The optical density was recorded on ELISA reader at 540 run.
as §3

MCF-7 = assay: In vitro cytotoxicity (SRB), MCF-7; details: Homo sapiens, MCF7, MCF-7 (breast), 48-hours, read-out: Percent growth inhibition; for inhibition at 10 µg/mL: 10 μg/ml; for inhibition at 30 µg/mL: 30 μg/ml; for inhibition at 100 µg/mL: 100 μg/ml
Description: as §4, §5, §6, §7, §8, §9, §3

cancer cells of lung = assay: Growth inhibition of cancer cells of lung; details: Homo sapiens, A549; concentration of about 100 μg/ml; A-549; read-out: inhibits the growth of cancer cells of lung
Description: as §1, §2, §3

SiHa = assay: In vitro cytotoxicity (SRB), SiHa; details: Homo sapiens, SiHa (cervix), 48-hours, read-out: Percent growth inhibition; for inhibition at 10 µg/mL: 10 μg/ml; for inhibition at 30 µg/mL: 30 μg/ml; for inhibition at 100 µg/mL: 100 μg/ml
Description: as §4, §5, §6, §7, §8, §9, §3

SMILES | inhibition at 100 µg/mL (cancer cells of breast) [%] | inhibition at 30 µg/mL (HT-29) [%] | inhibition at 100 µg/mL (HT-29) [%] | inhibition at 100 µg/mL (Hep-2) [%] | inhibition at 100 µg/mL [1] [%] | inhibition at 10 µg/mL (Colo-205) [%] | inhibition at 30 µg/mL (Colo-205) [%] | inhibition at 100 µg/mL (Colo-205) [%] | inhibition at 100 µg/mL (cancer cells of colon) [%] | inhibition at 100 µg/mL (SKNMC) [%] | inhibition of cell growth of the human cancer cell lines studied (in words) (human cancer cell lines) | inhibition at 100 µg/mL (human cancer cell lines) [%] | inhibition at 100 µg/mL (cancer cells of liver) [%] | inhibition at 10 µg/mL (A-549) [%] | inhibition at 30 µg/mL (A-549) [%] | inhibition at 100 µg/mL (A-549) [%] | inhibition at 100 µg/mL (ZR-75-1) [%] | inhibition at 100 µg/mL (cancer cells of cervix) [%] | inhibition at 100 µg/mL (IMR-32) [%] | inhibition at 30 µg/mL (SW-620) [%] | also measured
COc1cc(CC2COC(=O)C2(O)Cc2ccc(O)c(OC)c2)ccc1O (stereo in doubt) [(−)-Wikstromol] | ≤ 51 | 6 | 32 | 46 | ≤ 56 | 5 | 27 | 67 | ≤ 67 | 44 | dose dependent inhibition of cell growth | 32 to 67 | ≤ 46 | 21 | 37 | 56 | 37 | ≤ 37 | 56 | 20 | inhibition at 10 µg/mL (SW-620; 10 μg/ml): 14%; inhibition at 100 µg/mL (SW-620): 50%; inhibition at 10 µg/mL (MCF-7): 7%; inhibition at 30 µg/mL (MCF-7): 26%; inhibition at 100 µg/mL (MCF-7): 51%; inhibition at 100 µg/mL (cancer cells of lung): ≤ 56%; inhibition at 10 µg/mL (SiHa): 16%; inhibition at 30 µg/mL (SiHa): 21%; inhibition at 100 µg/mL (SiHa): 37%
COc1cc(C[C@H]2COC(=O)[C@@H]2Cc2ccc(O)c(OC)c2)ccc1O [(−)-Matairesinol] | ≤ 62 | 10 | 74 | 64 | ≤ 77 | 15 | 28 | 93 | ≤ 93 | 75 | dose dependent inhibition of cell growth | 54 to 93 | ≤ 64 | 19 | 33 | 65 | 62 | ≤ 63 | 77 | 11 | inhibition at 100 µg/mL (SW-620): 68%; inhibition at 10 µg/mL (MCF-7): 10%; inhibition at 30 µg/mL (MCF-7): 36%; inhibition at 100 µg/mL (MCF-7): 54%; inhibition at 100 µg/mL (cancer cells of lung): ≤ 65%; inhibition at 10 µg/mL (SiHa): 10%; inhibition at 30 µg/mL (SiHa): 29%; inhibition at 100 µg/mL (SiHa): 63%

From patent US7285571B2, “Herbal chemical composition for the treatment of cancer” (Council of Scientific and Industrial Research, priority 2001, dated 2007)
